Assay [1] concerns the target T1, PTPN2 (HiBIT-PTPN2 in 293T.109 cells) (Homo sapiens, UniProt P17706).
T1 construct: expressed in transfected cells; host or cells: 293T.109 (293T WT from ATCC)
T1 sequence (P17706 1-415): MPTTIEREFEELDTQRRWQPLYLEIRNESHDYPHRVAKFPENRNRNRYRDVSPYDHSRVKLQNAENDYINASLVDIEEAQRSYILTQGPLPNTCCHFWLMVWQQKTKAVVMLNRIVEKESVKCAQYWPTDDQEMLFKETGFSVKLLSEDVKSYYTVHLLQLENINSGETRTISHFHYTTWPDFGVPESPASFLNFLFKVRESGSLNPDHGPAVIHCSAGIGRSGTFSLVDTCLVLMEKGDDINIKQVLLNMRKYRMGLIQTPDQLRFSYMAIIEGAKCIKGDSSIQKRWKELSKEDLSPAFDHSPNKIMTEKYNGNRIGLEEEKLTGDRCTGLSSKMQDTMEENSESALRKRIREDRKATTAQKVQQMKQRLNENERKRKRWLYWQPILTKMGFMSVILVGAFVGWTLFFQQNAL
The experiment in a line: HiBiT Degradation 293T.109 PTPN2 (Nano-Glo HiBiT Lytic Assay). As to conditions: 24.0 hours. The class given is cell-based. The procedure, abridged:
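293T.109 cells with ectopic N-terminal HiBiT-tagged PTPN2 (5000/well) exposed to compounds for 24 h at 37 °C, 5% CO2; 11-point half-log titration from 10 μM top, duplicates. Remaining HiBiT-PTPN2 read as luminescence with Nano-Glo HiBiT lytic reagent, normalised to untreated cells (0%) and reagent-free wells.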

The target in assay [2] is T2, PTPN2 (B16F10.4 cells) (Mus musculus, UniProt Q06180).
T2 construct: HiBiT; host or cells: B16F10.4
T2 sequence (Q06180 1-406): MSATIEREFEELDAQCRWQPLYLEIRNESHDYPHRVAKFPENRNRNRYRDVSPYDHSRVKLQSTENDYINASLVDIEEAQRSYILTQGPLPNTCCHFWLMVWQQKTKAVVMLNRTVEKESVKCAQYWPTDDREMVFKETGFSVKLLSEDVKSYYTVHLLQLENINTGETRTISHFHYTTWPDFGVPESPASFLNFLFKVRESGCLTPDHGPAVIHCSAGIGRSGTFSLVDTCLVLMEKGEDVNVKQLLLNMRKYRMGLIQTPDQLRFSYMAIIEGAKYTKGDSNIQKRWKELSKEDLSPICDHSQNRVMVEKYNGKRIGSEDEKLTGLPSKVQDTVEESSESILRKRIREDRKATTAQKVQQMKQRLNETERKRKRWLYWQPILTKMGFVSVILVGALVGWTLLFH
The assay can be described thus: HiBiT Degradation B16F10.4 PTPN2. As to conditions: 24.0 hours. The assay is classed as cell-based. On the technique in general: The HiBiT peptide binds its large partner to form an active luciferase.

A value given as a limit tells only on which side of the number the result lay.

By DC50 is commonly meant the midpoint of the concentration-degradation curve. A low value points to degradation at low concentration. Regarding `Cn1c(=O)n(C2CCC(=O)NC2=O)c2ccc(C3CCN(C(=O)Nc4cc(CS(=O)(=O)N5CCC(Nc6cccc(-c7sc(C(=O)O)c(OCC(=O)O)c7Cl)c6)CC5(C)C)ccc4F)CC3)cc21` (stereo not drawn) [Example 114, 3-(carboxymethoxy)-4-chloro-5-[3-[[1-[[3-[[4-[1-(2,6-dioxo-3-piperidyl)-3-methyl-2-oxo-benzimidazol-5-yl]piperidine-1-carbonyl]amino]-4-fluoro-phenyl]methylsulfonyl]-2,2-dimethyl-4-piperidyl]amino]phenyl]thiophene-2-carboxylic acid], the DC50 is 0.05 to 0.2 µM in assay [1] and < 0.05 µM in assay [2].

For the molecule `CC1(C)C[C@@H](Nc2cccc(-c3sc(C(=O)O)c(OCC(=O)O)c3Cl)c2)CCN1S(=O)(=O)Cc1cccc(NC(=O)C2CN(C(=O)CNc3cccc4c3CN(C3CCC(=O)NC3=O)C4=O)C2)c1` (stereo partly drawn) [Example 44, 3-(Carboxymethoxy)-4-chloro-5-(3-(((4S)-1-((3-(1-((2-(2,6-dioxopiperidin-3-yl)-1-oxoisoindolin-4-yl)glycyl)azetidine-3-carboxamido)benzyl)sulfonyl)-2,2-dimethylpiperidin-4-yl)amino)phenyl)thiophene-2-carboxylic acid], the 50% degradation concentration (DC50) was < 0.05 µM in assay [1] and 0.2 to 1 µM in assay [2].

For the molecule `Cn1c(=O)n(C2CCC(=O)NC2=O)c2ccc(C3CCN(C(=O)Nc4cc(CS(=O)(=O)N5CC[C@@H](Nc6cccc(-c7sc(C(=O)O)c(OCC(=O)O)c7Cl)c6)CC5(C)C)ccc4F)CC3)cc21` (stereo partly drawn) [Example 120], the DC50 in assay [1] is 0.05 to 0.2 µM; in assay [2], < 0.05 µM.

Turning to `Cn1c(=O)n(C2CCC(=O)NC2=O)c2cc(F)c(C3CCN(C(=O)Nc4cccc(CS(=O)(=O)N5CC[C@H](Nc6cccc(-c7sc(C(=O)O)c(OCC(=O)O)c7Cl)c6)CC5(C)C)c4)CC3)cc21` (stereo partly drawn) [Example 153, 3-(carboxymethoxy)-4-chloro-5-[3-[[(4S)-1-[[3-[[4-[1-(2,6-dioxo-3-piperidyl)-6-fluoro-3-methyl-2-oxo-benzimidazol-5-yl]piperidine-1-carbonyl]amino]phenyl]methylsulfonyl]-2,2-dimethyl-4-piperidyl]amino]phenyl]thiophene-2-carboxylic acid], the DC50 was 0.05 to 0.2 µM in assay [1] and 0.2 to 1 µM in assay [2].

Regarding `Cn1c(=O)n(C2CCC(=O)NC2=O)c2ccc(N3CCC(OCC(=O)Nc4cccc(CS(=O)(=O)N5CC[C@H](Nc6cccc(-c7sc(C(=O)O)c(OCC(=O)O)c7Cl)c6)CC5(C)C)c4)CC3)cc21` (stereo partly drawn) [Example 105, 3-(carboxymethoxy)-4-chloro-5-[3-[[(4S)-1-[[3-[[2-[[1-[1-(2,6-dioxo-3-piperidyl)-3-methyl-2-oxo-benzimidazol-5-yl]-4-piperidyl]oxy]acetyl]amino]phenyl]methylsulfonyl]-2,2-dimethyl-4-piperidyl]amino]phenyl]thiophene-2-carboxylic acid], the DC50 in assay [1] lay within 0.05 to 0.2 µM; in assay [2] it was 0.2 to 1 µM.

Regarding `CC(Nc1cccc2c1CN(C1CCC(=O)NC1=O)C2=O)C(=O)NCCCCCCC(=O)Nc1cccc(CS(=O)(=O)N2CCC(Nc3cccc(-c4sc(C(=O)O)c(OCC(=O)O)c4Cl)c3)CC2)c1` (stereo not drawn) [Example 26, 3-(carboxymethoxy)-4-chloro-5-[3-[[1-[[3-[7-[2-[[2-(2,6-dioxo-3-piperidyl)-1-oxo-isoindolin-4-yl]amino]propanoylamino]heptanoylamino]phenyl]methylsulfonyl]-4-piperidyl]amino]phenyl]thiophene-2-carboxylic acid], the DC50 in assay [1] was 0.2 to 1 µM; in assay [2] it was ≥ 1 µM.

For the molecule `Cn1c(=O)n(C2CCC(=O)NC2=O)c2ccc(C3CCN(C(=O)Nc4cccc(CS(=O)(=O)N5CC[C@H](Nc6cccc(-c7sc(C(=O)O)c(OCC(=O)O)c7Cl)c6)CC5(C)C)c4)CC3(F)F)cc21` (stereo partly drawn) [Example 147, 3-(carboxymethoxy)-4-chloro-5-[3-[[(4S)-1-[[3-[[4-[1-(2,6-dioxo-3-piperidyl)-3-methyl-2-oxo-benzimidazol-5-yl]-3,3-difluoro-piperidine-1-carbonyl]amino]phenyl]methylsulfonyl]-2,2-dimethyl-4-piperidyl]amino]phenyl]thiophene-2-carboxylic acid], the DC50 in assay [1] and in assay [2] was < 0.05 µM in each case.

On to `CC(C)n1c(=O)n([C@@H]2CCC(=O)NC2=O)c2ccc(C3CCN(C(=O)Nc4cccc(CS(=O)(=O)N5CC[C@H](Nc6cccc(-c7sc(C(=O)O)c(OCC(=O)O)c7Cl)c6)CC5(C)C)c4)CC3)cc21` (single isomer, unassigned) [Example 87a], for which the half-maximal degradation concentration (DC50) in assay [1] and in assay [2] was 0.05 to 0.2 µM throughout.

Consider `CC1(C)C[C@@H](Nc2cccc(-c3sc(C(=O)O)c(OCC(=O)O)c3Cl)c2F)CCN1S(=O)(=O)Cc1ccc(F)c(NC(=O)C2CN(C(=O)CNc3cccc4c3CN([C@H]3CCC(=O)NC3=O)C4=O)C2)c1` (single isomer, unassigned) [Example 148b], for which the DC50 is < 0.05 µM in assay [1] and 0.2 to 1 µM in assay [2].

`CC1(C)C[C@@H](Nc2cccc(-c3sc(C(=O)O)c(OCC(=O)O)c3Cl)c2)CCN1S(=O)(=O)Cc1cccc(NC(=O)N2CCC(c3ccc4c(c3)n(C(C)(C)C)c(=O)n4C3CCC(=O)NC3=O)CC2)c1` (stereo partly drawn) [Example 186, 5-(3-(((4S)-1-((3-(4-(3-(tert-butyl)-1-(2,6-dioxopiperidin-3-yl)-2-oxo-2,3-dihydro-1H-benzo[d]imidazol-5-yl)piperidine-1-carboxamido)benzyl)sulfonyl)-2,2-dimethylpiperidin-4-yl)amino)phenyl)-3-(carboxymethoxy)-4-chlorothiophene-2-carboxylic acid]: the DC50 in assay [1] and in assay [2] was 0.05 to 0.2 µM in each case.

As for `Cn1c(=O)n(C2CCC(=O)NC2=O)c2ccc(C3CCN(C(=O)Nc4cccc(CS(=O)(=O)N5CC[C@H](Oc6cccc(-c7sc(C(=O)O)c(OCC(=O)O)c7Cl)c6)CC5(C)C)c4)CC3)cc21` (stereo partly drawn) [Example 225, 3-(carboxymethoxy)-4-chloro-5-(3-(((4S)-1-((3-(4-(1-(2,6-dioxopiperidin-3-yl)-3-methyl-2-oxo-2,3-dihydro-1H-benzo[d]imidazol-5-yl)piperidine-1-carboxamido)benzyl)sulfonyl)-2,2-dimethylpiperidin-4-yl)oxy)phenyl)thiophene-2-carboxylic acid], the half-maximal degradation concentration (DC50) was 0.2 to 1 µM in assay [1] and 0.05 to 0.2 µM in assay [2].

As to `CC1(C)C[C@@H](Nc2cccc(-c3sc(C(=O)O)c(OCC(=O)O)c3Cl)c2)CCN1S(=O)(=O)Cc1cccc(NC(=O)N2CCN(C(=O)CNc3cccc4c3CN(C3CCC(=O)NC3=O)C4=O)CC2)c1` (stereo partly drawn) [Example 62, 3-(carboxymethoxy)-4-chloro-5-(3-(((4S)-1-((3-(4-((2-(2,6-dioxopiperidin-3-yl)-1-oxoisoindolin-4-yl)glycyl)piperazine-1-carboxamido)benzyl)sulfonyl)-2,2-dimethylpiperidin-4-yl)amino)phenyl)thiophene-2-carboxylic acid], the DC50 was in the range of 0.05 to 0.2 µM in assay [1] and 0.2 to 1 µM in assay [2].

For the molecule `CC1(C)C[C@@H](Nc2cccc(-c3sc(C(=O)O)c(OCC(=O)O)c3Cl)c2)CCN1S(=O)(=O)Cc1cccc(NC(=O)N2CCCN(c3ccc4c5c(cccc35)C(=O)N4C3CCC(=O)NC3=O)CC2)c1` (stereo partly drawn) [Example 163, 3-(carboxymethoxy)-4-chloro-5-(3-(((4S)-1-((3-(4-(1-(2,6-dioxopiperidin-3-yl)-2-oxo-1,2-dihydrobenzo[cd]indol-6-yl)-1,4-diazepane-1-carboxamido)benzyl)sulfonyl)-2,2-dimethylpiperidin-4-yl)amino)phenyl)thiophene-2-carboxylic acid], the DC50 in assay [1] and in assay [2] was 0.05 to 0.2 µM in each case.

As to `CC1(C)C[C@@H](Nc2cccc(-c3sc(C(=O)O)c(OCC(=O)O)c3Cl)c2)CCN1S(=O)(=O)Cc1cccc(NC(=O)N2CCN(C(=O)CCc3cccc4c3CN(C3CCC(=O)NC3=O)C4=O)CC2)c1` (stereo partly drawn) [Example 64], the 50% degradation concentration (DC50) in assay [1] and in assay [2] was 0.2 to 1 µM in each case.

Turning to `Cn1c(=O)n(C2CCC(=O)NC2=O)c2ccc(C3CCN(C(=O)Nc4cccc(CS(=O)(=O)N5CC[C@H](Nc6cc(-c7sc(C(=O)O)c(OCC(=O)O)c7Cl)ccc6F)CC5(C)C)c4)CC3)cc21` (stereo partly drawn) [Example 132, 3-(carboxymethoxy)-4-chloro-5-[3-[[(4S)-1-[[3-[[4-[1-(2,6-dioxo-3-piperidyl)-3-methyl-2-oxo-benzimidazol-5-yl]piperidine-1-carbonyl]amino]phenyl]methylsulfonyl]-2,2-dimethyl-4-piperidyl]amino]-4-fluoro-phenyl]thiophene-2-carboxylic acid], the DC50 is 0.2 to 1 µM in assay [1] and 0.05 to 0.2 µM in assay [2].

For the origin of these results see patent US20250302815A1, “PROTEIN TYROSINE PHOSPHATASE TARGETING LIGANDS” (CALICO LIFE SCIENCES LLC, priority 2021, published 2025).
